From US10899756B2, “Phosphodiesterase inhibitors and uses thereof” (The Trustees of Columbia University in the City of New York, priority 2013, dated 2021)
Like-named read-outs stand apart in the source and are kept apart here.

Experiments:
APP/PS1 mice [1] = assay: Contextual fear conditioning (fear memory); format: in vivo
Description: Fear conditioning was assessed as described in B. Gong, O. V. Vitolo, F. Trinchese, S. Liu, M. Shelanski, O. Arancio, Persistent improvement in synaptic and cognitive functions in an Alzheimer mouse model after rolipram treatment, J. Clin. Invest. 114 (2004) 1624-1634; F. Trinchese, S. Liu, F. Battaglia, S. Walter, P. M. Mathews, O. Arancio, Progressive age-related development of Alzheimer-like pathology in APP/PS1 mice, Ann. Neurol. 55 (2004) 801-814; and B. Gong, Z. Cao, P. Zheng, O. V. Vitolo, S. Liu, A. Staniszewski, D. Moolman, H. Zhang, M. Shelanski, O. Arancio, Ubiquitin hydrolase Uch-L1 rescues beta-amyloid-induced decreases in synaptic function and contextual memory, Cell 126 (2006) 775-788; each herein incorporated by reference in its entirety. […] Freezing behavior, defined as the absence of movements except for respiratory excursions, was scored using Freezeview software (Med Associates, St. Albans, Vt.). Contextual fear learning was evaluated 24 hrs after training by measuring freezing responses for 5 min in the same chamber where the mice were trained. Cued fear learning was evaluated 24 hrs after contextual testing. The mice were placed in a novel context for 2 min (pre-CS test), after which they were given a CS for 3 min (CS test), and freezing behavior was measured during the first 30 sec that mimic the CS-US conditioning and the remaining 2.5 min. […]

[2] = test system: LTP in hippocampal slices of APP/PS1 mice; assay: Long-term potentiation in slices after 3 weeks daily i.p. treatment and 9-12 weeks without treatment; format: in vivo; settings: 3 mg/kg/day i.p. for 3 weeks from 3 months of age, treatment stopped 9-12 weeks prior to testing
Description: Transverse hippocampal slices (400 μm) were cut with a tissue chopper (EMS, PA) and maintained in an interface chamber at 29° C. for 90 min prior to recording, as described in Vitolo et al, Proc. Natl. Acad. Sci. USA 2002, 13217-13221, herein incorporated by reference in its entirety. The extracellular bath solution consisted of 124.0 mM NaCl, 4.4 mM KCl, 1.0 mM Na2HPO4, 25.0 mM NaHCO3, 2.0 mM CaCl2, 2.0 mM MgSO4, and 10.0 mM glucose, continuously aerated with 95% O2/5% CO2 to a final pH of 7.4. Field extracellular postsynaptic responses (fEPSPs) were recorded by placing the stimulating and recording electrodes in CA1 stratum radiatum. […] Basal synaptic transmission was first assessed by plotting the stimulus voltages (V) against slopes of fEPSP to generate input-output relations. A 20-30 min baseline was first recorded every minute at an intensity that evoked a response at approximately 35% of the maximum evoked response. […] Responses were measured as fEPSP slopes expressed as percentage of baseline.
Slices from transgenic mice treated with the compound had 226.23%±6.72 potentiation compared to 164.12%±10.37 in slices from vehicle-treated transgenic mice (FIG. 3). Residual potentiation recorded during the last 5 minutes of a 2 hr recording following tetanic stimulation of the Schaffer collateral fibers at the CA3-CA1 connection.

[3] = Pharmacokinetic study, brain and plasma; format: in vivo, C57B16 mice; settings: 25 mg/kg i.p., mice; for half-life: read-out: t½ (elimination half-life) (converted)
APP/PS1 mice [4] = assay: 2-day radial arm water maze (reference memory); format: in vivo
Description: The radial arm water maze task, a hybrid of the classic Morris Water Maze and the radial arm land maze, was performed as described in J. Alamed, D. M. Wilcock, D. M. Diamond, M. N. Gordon, D. Morgan, Two-day radial-arm water maze learning and memory task; robust resolution of amyloid-related memory deficits in transgenic mice, Nat. Prot. 1 (2006) 1671-1679, herein incorporated by reference in its entirety. The mouse had to swim in 6 alleys (arms) radiating from a central area until it found a hidden (submerged) platform at the end of one of the arms, based on visual cues placed in the room. The first day of the protocol was a training day on which mice were trained to identify the platform location by alternating between a visible and a hidden platform in a goal arm. The final 3 trials on that day and all 15 trials on day 2 used a hidden escape platform to force mice to use spatial cues to identify the location of the goal arm. […] The number of incorrect arm entries (entries to arms with no platform) was counted. […] Failure to select an arm after 15 sec was counted as an error and the mouse was returned to the start arm. […] For data analysis, averages for each mouse were calculated using blocks of 3 trials. […]

[5] = test system: LTP in hippocampal slices of APP/PS1 mice; assay: Long-term potentiation in hippocampal slices, compound through the bath perfusion; settings: 50 nM bath perfusion
[6] = Acute toxicity study with histology; format: in vivo; settings: 120 or 240 mg/kg, i.p.
From the text: Brain, muscle, kidney, and liver were harvested from each mouse, and tissue from each organ was examined histologically by a board-certified pathologist for signs of toxicity.

APP/PS1 mice [7] = assay: Preliminary studies with sildenafil in APP/PS1 mice; format: in vivo; settings: persist beyond the administration of the inhibitor
[8] = Metabolite formation (H versus D substitution); format: in vitro ADME; settings: substitution of H with D; instead of three
[9] = 3-4 month old APP/PS1 mice, 3 mg/kg i.p. for 3 weeks
[10] = APP/PS1 mice, 3 mg/kg/day i.p. for 3 weeks at 3-4 months, treatment stopped 9-12 weeks, examined at 6-7 months

COc1ccc(CNc2c3c(nc4ccc(C#N)cc24)CCN(C(C)=O)C3)cc1Cl [Compound H, 2-acetyl-10-[(3-chloro-4-methoxybenzyl)amino]-1,2,3,4-tetrahydrobenzo[b][1,6]naphthyridine-8-carbonitrile]
freezing, contextual fear memory 24 hrs after shock (APP/PS1 mice [1]; [9]): ~30%
freezing, contextual memory (APP/PS1 mice [1]; [10]): ~40%
residual potentiation (fEPSP slope, percentage of baseline) [2]: 226.23%±6.72
t½ (elimination half-life) ([3]; Brain): 39 min
t½ (elimination half-life) ([3]; Plasma): 64.2 min
Cmax ([3]; male, C57B16, mouse, ip, Brain): 492 ng/g
half-life ([3]; male, C57B16, mouse, ip, Brain): 39 min
half-life ([3]; male, C57B16, mouse, ip, Plasma): 64.2 min
errors in the last trial of the 2-day RAWM test (APP/PS1 mice [4]; [9]): 1 to 2 errors
errors in the 2-day RAWM test (APP/PS1 mice [4]; [10]): ~1 error
effect on potentiation in WT slices [5]: no effect
brain sections, CD45 immunostain [6]: no signs of inflammation
brain sections, GFAP immunostain [6]: no signs of gliosis
brain sections, H&E [6]: did not show any signs of toxicity
brain sections, LFB-PAS stain [6]: no signs of demyelination
kidney sections, H&E staining [6]: no toxicity
kidney sections, PAS staining [6]: did not show any abnormalities in the glomerular basement membrane
kidney sections, trichrome staining [6]: no fibrosis
liver sections, H&E staining [6]: did not show any signs of toxicity
liver sections, trichrome stain [6]: no fibrosis or cirrhotic liver disease
muscle sections, H&E [6]: no signs of toxicity
muscle sections, trichrome stain [6]: no muscle fibrosis
neurotoxicity in the brain [6]: no signs of neurotoxicity

CCCc1nn(C)c2c(=O)[nH]c(-c3cc(S(=O)(=O)N4CCN(C)CC4)ccc3OCC)nc12 [sildenafil]
effects on synaptic and cognitive abnormalities (APP/PS1 mice [7]): prolonged beneficial effects

[2H]C([2H])(Nc1c2c(nc3ccc(C#N)cc13)CCN(C(C)=O)C2)c1ccc(OC)c(Cl)c1 [U]
number of metabolites formed [8]: 1
